The source of these data is US12605471B2 (The General Hospital Corporation, priority 2013, dated 2026).

One data set concerns Aβ fibril. The conditions noted are these: cited from earlier work.
Data set [1] can be described thus: Biodistribution of F-18 cromolyn in normal mice after intravenous injection. The data set is classed as in vivo. The conditions noted are these: i.v. tail vein.
Assay in data set [2]: as above
The data set is classed as in vivo. The conditions noted are these: for Tissue Distribution, blood / Tissue Distribution, brain / Tissue Distribution, heart / Tissue Distribution, liver / Tissue Distribution, lung: normal mice, i.v. tail vein. The procedure: At 5 min, organ activity (DPG) was: heart: 1.09%, blood: 3.3%, lung: 1.90%, liver: 7.69%, and brain: 0.15%. […] The data is provided in Table 1 below and in bar graph format in FIG. 4.

Data set [3] can be described thus: Brain concentration of PIB analog TS3124. The conditions noted are these: in vivo.
For a further data set, the system named is atherosclerotic plaque. The conditions noted are these: mice; cited from earlier work.
The conditions of data set [4]: human, oral inhalation, high inspiratory rates; cited from earlier work.
Another data set relates to interleukin-6 (IL-6). The conditions noted are these: mice, stress-related coronary inflammation; cited from earlier work.
The target in another data set is Aβ (1-40) peptides (Homo sapiens, UniProt P05067). Briefly: UV aggregation assay. The data set is classed as biochemical. The procedure:
Aβ peptide aggregation and the impact of drugs to slow or prevent Aβ aggregation was measured by a UV absorbance assay (Findeis, 1999). Aβ (1-40) peptides, at 50 μM, were mixed with 50 μM drug in assay buffer and the plate was incubated at ambient temperature on a plate reader. The UV absorbance was monitored at 540 nm over a 2-3 h period.
Polymerization of Aβ-monomer peptides into clusters of trimers and tetramers initiates the Aβ aggregation process into protofibrils and then into fibrils that form amyloid plaques.

For a further data set, the target named is Aβ peptide (Homo sapiens, UniProt P05067). Briefly: Aβ aggregation by thioflavin T assay. The data set is classed as biochemical. As for the experimental part: One of the most routinely used approaches to monitor Aβ polymerization is the thioflavin T binding assay. […] Aβ peptide at 5 μM was mixed with 10 μM thioflavin T with drug at different concentrations.
Sequence of Aβ peptide (P05067 672-711 limits assumed): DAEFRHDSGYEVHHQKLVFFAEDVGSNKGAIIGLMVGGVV

Sequence of Aβ (1-40) peptides (P05067 672-711 limits assumed): as above

As to `O=c1c(O)c(-c2ccc(O)c(O)c2)oc2ccccc12` [3,3′,4′-Trihydroxyflavone], the “Effects on Aβ fibril formation” value in the data set on Aβ fibril is “Inhibitory”.
As to `O=c1c(O)c(-c2cccc(O)c2)oc2cc(O)ccc12` [3,3′,7-Trihydroxyflavone], the “Effects on Aβ fibril formation” value in the data set with Aβ fibril is “Enhancing”.
Turning to `O=c1cc(-c2ccc(O)c(O)c2)oc2cc(O)ccc12` [3′,4′,7-Trihydroxyflavone], the “Effects on Aβ fibril formation” value in the data set with Aβ fibril is recorded as “Inhibitory”.
For `O=c1c(O)c(-c2ccc(O)cc2)oc2cc(O)ccc12` [5-Deoxykaempferol], in the data set on Aβ fibril, the “Effects on Aβ fibril formation” value is given as “Enhancing”.
Take `O=c1cc(-c2ccccc2)oc2cc(O)cc(O)c12` [Chrysin]: the “Effects on Aβ fibril formation” value in the data set with Aβ fibril was “Enhancing”.
Consider `O=C(O)c1cc(=O)c2c(OCC([18F])COc3cccc4oc(C(=O)O)cc(=O)c34)cccc2o1` [F-18 Cromolyn, 5,5′-(2-[18F]fluoropropane-1,3-diyl)bis(oxy)bis(4-oxo-4H-chromene-2-carboxylic acid)], for which the “Tissue Distribution, liver” value in data set [1] (30 min) was 3.11 ± 0.36 % Dose/gram; in data set [2] (5 min), 7.69 ± 0.41 % Dose/gram; in [2] (5 min, listed as F-18 cromolyn) it was 7.69 % Dose/gram; in data set [2] (60 min), 1.76 ± 0.74 % Dose/gram. In addition, the “Tissue Distribution, lung” value in [1] (30 min) amounted to 0.62 ± 0.19 % Dose/gram; in data set [1] (60 min) it was 0.29 ± 0.21 % Dose/gram; in data set [2] (5 min), 1.90 ± 1.04 % Dose/gram; in data set [2] (5 min, listed as F-18 cromolyn), 1.90 % Dose/gram. Besides, the “Tissue Distribution, brain” value in [1] (60 min) stood at 0.03 ± 0.004 % Dose/gram; in data set [2] (5 min), 0.15 ± 0.37 % Dose/gram; in data set [2] (5 min, listed as F-18 cromolyn), 0.15 % Dose/gram; in [2] (30 min) it was 0.04 ± 0.007 % Dose/gram. The “Tissue Distribution, heart” value in data set [1] (60 min) was 0.18 % Dose/gram; in data set [2] (5 min), 1.09 ± 0.13 % Dose/gram; in data set [2] (5 min, listed as F-18 cromolyn), 1.09 % Dose/gram; in data set [2] (30 min), 0.32 ± 0.03 % Dose/gram; in data set [2] (60 min), 0.18 ± 0.07 % Dose/gram. Further, the “brain uptake (accumulation)” value in data set [2] (mice, intravenous injection, 5, 30 or 60 minute, little or no washout, FIG. 4) is 1%. The “Tissue Distribution, blood” value in data set [2] (5 min) turned out to be 3.31 ± 1.37 % Dose/gram; in data set [2] (5 min, listed as F-18 cromolyn), 3.3 % Dose/gram; in [2] (30 min), 0.92 ± 0.20 % Dose/gram; in data set [2] (60 min) it was 0.44 ± 0.15 % Dose/gram.
As to `O=c1c(O)c(-c2ccc(O)cc2)oc2cc(O)cc(O)c12` [Kaempferol], the “Effects on Aβ fibril formation” value in the data set on Aβ fibril is recorded as “Enhancing”.
Consider `O=c1cc(-c2ccc(O)c(O)c2)oc2cc(O)cc(O)c12` [Luteolin], for which the “Effects on Aβ fibril formation” value with Aβ fibril was “Inhibitory”.
Regarding `O=c1c(O)c(-c2cc(O)c(O)c(O)c2)oc2cc(O)cc(O)c12` [Myricetin], the “Effects on Aβ fibril formation” value in the data set with Aβ fibril is given as “Inhibitory”.
For the compound `O=c1c(O)c(-c2ccc(O)c(O)c2)oc2cc(O)cc(O)c12` [Quercetin], the “Effects on Aβ fibril formation” value in the data set with Aβ fibril is “Inhibitory”.
In the case of `CC(F)CNc1ccc(-c2nc3ccc(O)cc3s2)cc1` (stereo not shown) [TS3124], the brain concentration in [3] is reported as 4%.
On to `O=C([O-])c1cc(=O)c2c(OCC(O)COc3cccc4oc(C(=O)[O-])cc(=O)c34)cccc2o1.[Na+].[Na+]` [cromolyn sodium, Disodium cromoglicate], for which, in the data set on atherosclerotic plaque, the dinitrophenyl-albumin-induced plaque expansion result is recorded as “prevented”. For the same compound, the “inhaled drug-delivered-dose absorbed into the bloodstream” value in data set [4] is given as 10-15%. In addition, the “release of interleukin-6 (IL-6)” value with interleukin-6 (IL-6) is “partially inhibited”. Also, the “incubation time required for 50% polymerization” value on Aβ (1-40) peptides (Aβ 50 μM, equimolar drug, 14 minutes in the absence of drug) turned out to be 75 min. The “inhibition of the rate of Aβ polymerization” value against Aβ (1-40) peptides (equimolar concentrations with Aβ) was found to be 7 fold. On Aβ peptide (Aβ peptide 5 μM, 10 μM thioflavin T, drug at nanomolar concentration, FIG. 6), the “Aβ aggregation (thioflavin T fluorescence)” value was “inhibition of Aβ aggregation”. For the same compound, the “Aβ amyloid peptide polymerization into oligomers and higher order aggregates” value at Aβ peptide (four separate in vitro assays, nanomolar concentrations) was “effectively inhibits”.
Turning to Fisetin, in the data set with Aβ fibril, the “Effects on Aβ fibril formation” value was “Inhibitory”.
